The values below come from patent US20010044445A1, “AZOLE INHIBITORS OF CYTOKINE PRODUCTION” (priority 1999, published 2001).

The test deals with Human peripheral blood mononuclear cells. Description: Human Concanavalin-A Proliferation Assay (Con HU Assay). In kind it is cell-based. To be noted: concanavalin-A stimulated human PBMC; for IC50: tritiated thymidine; for % Inhibition of proliferation (at concentrations of 1,10, or 100 μm) / inhibition at 10 µM / inhibition at 1 µM / inhibition at 100 µM: 3 days; for inhibition at 10 µM / inhibition at 1 µM / inhibition at 100 µM: 72 h, read-out: % Inhibition of proliferation (at concentrations of 1,10, or 100 μm). The method, then:
Human peripheral blood mononuclear cells were cultured in RPMI 1640 medium supplemented with 10 μg/ml gentamicin, 50 μM 2-mercaptoethanol, 1X MEM non-essential amino acids (Sigma Chemical Co., St. Louis, Mo.), 100 U/ml sodium penicillin G, 100 μg/ml streptomycin sulfate, 2 mM L-glutamine, 1 mM sodium pyruvate (Life Technologies, Grand Island, N.Y.) and 10% fetal bovine serum (Hyclone, Logan, Utah) at 37° C. with 5% CO2.
The procedure in Current Protocols in Immunology, Volume 1, Published by the Greene Publishing Associates and John Wiley & Sons, Inc, Edited by Richard Coico, 1994, hereby incorporated by reference, was followed. Briefly, 50 ml of blood from human volunteers was collected in heparinized syringes and mixed. Blood was diluted 1:1 in Dulbecco's phosphate buffered saline (D-PBS) (Life Technologies, Grand Island, N.Y.) and mixed. PBS-blood mixture was overlaid into 50 ml centrifuge tubes containing 15 ml Histopaque 1077 (Sigma Chemical Co., St. Louis, Mo.) and centrifuged at 500 X G for 30 minutes at room temperature. Cells at the interface from each Histopaque tube were removed and mixed with 5 ml of D-PBS. Each cell suspension was diluted to 50 ml with D-PBS, mixed and centrifuged at 400 X G for 15 minutes at room temperature. After most of the supernatant was removed, cells were resuspended to 40 ml with D-PBS per tube (2 tubes per donor). Cells were centrifuged at 400 X G for 10 minutes at room temperature. Pellets were resuspended in 10 ml of supplemented RPMI 1640 and cell number determined with a Coulter counter. Cells were diluted to a concentration of 0.5×10^6 cells per mL.
The procedure in Current Protocols in Immunology, Volume 1, Published by the Greene Publishing Associates and John Wiley & Sons, Inc, Edited by Richard Coico, 1994, hereby incorporated by reference, was followed. Briefly, test compounds were added to appropriate wells on 96-well tissue culture plates (Corning Glass Works, Corning, N.Y.) in 20 µl of supplemented RPMI 1640. Human peripheral blood mononuclear cells were added to each well in 100 μl volumes (final cell concentration equal to 50,000 cells per well). After 15 minutes, 100 μl of 5 μg/ml concanavalin-A (Sigma Chemical Co., St. Louis, Mo.) in supplemented RPMI 1640 was added to a final concentration of 2.5 μg/ml. Plates were incubated for 3 days at 37° C. with 5% CO2. On day 3, plates were pulsed with 0.5 μCi/well tritiated thymidine (New England Nuclear, Boston, Mass.). After 6 hours, plates were harvested on a Tomatec 96-well havester (Orange, Conn.). Glass filter mats were counted on a Matrix 9600 direct beta counter (Packard, Meriden, Conn.).

[1] abbreviates: concentration 100 μm (in parentheses in the cell).
Setting [2] is: Homo sapiens, PBMC, concentration 10 μm (in parentheses in the cell).
Where [3] appears, read: Homo sapiens, PBMC, concentration 1 μm (in parentheses in the cell).
Setting [4] is: Homo sapiens, PBMC, concentration 100 μm (in parentheses in the cell).
[5] abbreviates: concentration 1 μm (in parentheses in the cell).

Take `O=C(Nc1ccc(-n2nc(C(F)(F)F)cc2C(F)(F)F)cc1)C1CCCCC1` [Example 124, N-[4-[3,5-bis(trifluoromethyl)-1H-pyrazol-1-yl]phenyl]cyclohexanecarboxmide]: inhibition was half-maximal at 285 nM (IC50). Moreover, under setting [1], the “% Inhibition of proliferation (at concentrations of 1,10, or 100 μm)” value (“% Inhibition of proliferation” for short) was 99(100) %.

Consider `Nc1cnccc1C(=O)Nc1ccc(-n2nc(C(F)(F)F)cc2C(F)(F)F)cc1` [Example 290, 3-amino-N-(4-(3,5-bis(trifluoromethyl)-1H-pyrazol-1-yl)phenyl)isonicotinamide], for which the midpoint of inhibition (Homo sapiens, PBMC), the IC50, lay at 373 nM.

For the molecule `O=C(Nc1ccc(-n2nc(C(F)(F)F)cc2C(F)(F)F)cc1)c1cc(Cl)cnc1Cl` [Example 270, N-[4-[3,5-bis(trifluoromethyl)-1H-pyrazol-1-yl]phenyl]-2,5-dichloro-3-pyridinecarboxamide], the inhibition at 10 µM under setting [2] was 100%. The midpoint of inhibition (Homo sapiens, PBMC), the IC50, lay at 228 nM.

Regarding `O=C1CCC(C(=O)Nc2ccc(-n3nc(C(F)(F)F)cc3C(F)(F)F)cc2)N1` (stereo not drawn) [Example 255, N-[4-[3,5-bis(trifluoromethyl)-1H-pyrazol-1-yl]phenyl]-5-oxo-2-pyrrolidinecarboxamide], the inhibition at 1 µM under setting [3] is 12%.

On to `CCOc1cc(C(F)(F)F)nn1-c1ccc(NC(=O)c2cccnc2F)cc1` [Example 319, N-(4-(5-ethoxy-3-(trifluoromethyl)-1H-pyrazol-1-yl)phenyl)-2-fluoronicotinamide], for which, under “Homo sapiens, PBMC”, the IC50 (in general, the concentration that inhibits the measured activity by half) is 219 nM.

As to `O=C(Nc1ccc(-n2nc(C(F)(F)F)cc2C(F)(F)F)cc1)c1ccc(Br)o1` [Example 251, N-[4-[3,5-bis(trifluoromethyl)-1H-pyrazol-1-yl]phenyl]-5-bromo-2-furancarboxamide], the inhibition at 1 µM under setting [3] amounted to 50%.

Where the note is “Homo sapiens, PBMC”, `N#Cc1cc(C(F)(F)F)nn1-c1ccc(NC(=O)c2cc(F)cc(F)c2F)cc1` [Example 307, N-(4-(5-cyano-3-(trifluoromethyl)-1H-pyrazol-1-yl)phenyl)-2,3,5-trifluorobenzamide] gave an IC50 of 79 nM.

In turn, `O=C(Nc1ccc(-n2nc(-c3cncc(Br)c3)cc2OC(F)F)cc1)c1ccncc1F` [Example 339, N-(4-(3-(5-bromo-3-pyridinyl)-5-(difluoromethoxy)-1H-pyrazol-1-yl)phenyl)-3-fluoroisonicotinamide] gave an IC50 (Homo sapiens, PBMC) of 369 nM.

Consider `O=C(Nc1ccc(-n2nc(C(F)(F)F)cc2C(F)(F)F)cc1)c1ccccn1` [Example 121, N-[4-[3,5-bis(trifluoromethyl)-1H-pyrazol-1-yl]phenyl]-2-pyridinecarboxamide], for which the inhibition at 100 µM under setting [4] amounted to 53%. Besides, for the setting “Homo sapiens, PBMC”, the IC50 was found to be 10600 nM.

In turn, `O=C(Nc1ccc(-n2nc(C(F)(F)F)cc2C(F)(F)F)cc1)c1ccc(O)c(Br)c1` [Example 222] registered an IC50 of 760 nM. Further, where the note is “concentration 10 μm (in parentheses in the cell)”, the “% Inhibition of proliferation” value is listed as 100(10) %.

The molecule `O=C(Nc1ccc(-n2nc(-c3nccs3)cc2Cl)cc1)c1ccncc1F` [Example 347, N-(4-(5-chloro-3-(1,3-thiazol-2-yl)-1H-pyrazol-1-yl)phenyl)-3-fluoroisonicotinamide] showed an IC50 (Homo sapiens, PBMC) of 288 nM.

Take `CC(=O)Nc1ccc(-n2nc(C(F)(F)F)cc2C(F)(F)F)cc1` [Example 156]: the “% Inhibition of proliferation” value under setting [5] is 16(1) %.

Turning to `O=C(Nc1ccc(-n2nc(C(F)(F)F)cc2C(F)(F)F)cc1)c1cnccn1` [Example 172, N-[4-[3,5-Bis(trifluoromethyl)-1H-pyrazol-1-yl]phenyl]pyazinecarboxamide], the “% Inhibition of proliferation” value under setting [5] is 48(1) %.

For `CSc1cc(C(F)(F)F)nn1-c1ccc(NC(=O)c2ccccc2F)cc1` [Example 309, 2-fluoro-N-(4-(5-(methylsulfanyl)-3-(trifluoromethyl)-1H-pyrazol-1-yl)phenyl)benzamide], for the setting “Homo sapiens, PBMC”, half-maximal inhibition (IC50) was put at 32 nM.

Turning to `O=C(Nc1ccc(-n2nc(C(F)(F)F)cc2Br)cc1)c1ccncc1F` [Example 332, N-(4-(5-bromo-3-(trifluoromethyl)-1H-pyrazol-1-yl)phenyl)-3-fluoroisonicotinamide], where the note is “Homo sapiens, PBMC”, the IC50 turned out to be 44 nM.

Consider `N#Cc1cc(C2CCCO2)nn1-c1ccc(NC(=O)c2ccncc2F)cc1` (stereo not drawn) [Example 357, N-(4-(5-cyano-3-tetrahydro-2-furanyl-1H-pyrazol-1-yl)phenyl)-3-fluoroisonicotinamide], for which half-maximal inhibition (Homo sapiens, PBMC) (IC50) was put at 1860 nM.

Take `O=S(=O)(Nc1ccc(-n2nc(C(F)(F)F)cc2C(F)(F)F)cc1)c1cc(F)cc(F)c1` [Example 5, N-[4-[3,5-bis(trifluoromethyl)-1H-pyrazol-1-yl]phenyl]-3,5-difluorobenzenesulfonamide]: under setting [4], the inhibition at 100 µM came out at 100%. This molecule also had an IC50 (Homo sapiens, PBMC) of 33700 nM.

For the molecule `Cc1ccc([N+](=O)[O-])cc1NC(=O)Nc1ccc(-n2nc(C(F)(F)F)cc2C(F)(F)F)cc1` [Example 50], the “% Inhibition of proliferation” value under setting [5] is 2(1) %.

As for `Cc1cc(C(F)(F)F)nn1-c1ccc(NC(=O)c2ccc(Cl)cc2)cc1` [Example 281, 4-chloro-N-[4-[5-methyl-3-(trifluoromethyl)-1H-pyrazol-1-yl]phenyl]benzamide], the inhibition at 100 µM under setting [4] is 94%. For the setting “Homo sapiens, PBMC”, this molecule displayed an IC50 of 1060 nM.

As for `CC(C)(C)OC(=O)N1CCC(C(=O)Nc2ccc(-n3nc(C(F)(F)F)cc3C(F)(F)F)cc2)CC1` [Example 120, 1,1-Dimethylethyl 4-[[[4-[3,5-bis(trifluoromethyl)-1H-pyrazol-1-yl]phenyl]amino]carbonyl]-1-piperidinecarboxylate], under setting [4], the inhibition at 100 µM was determined as 100%. The same molecule yielded an IC50 (Homo sapiens, PBMC) of 488 nM.

Regarding `CCCCCCCc1ccc(C(=O)Nc2ccc(-n3nc(C(F)(F)F)cc3C(F)(F)F)cc2)cc1` [Example 111, N-[4-[3,5-bis(trifluoromethyl)-1H-pyrazol-1-yl]phenyl]-4-heptybenzamide], it took 41000 nM to reach half-maximal inhibition (IC50). Also, the “% Inhibition of proliferation” value under setting [1] is 76(100) %.

`O=C(Nc1ccc(-n2nc(-c3cccnc3)cc2C(F)F)cc1)c1ccncc1F` [Example 329, N-(4-(5-(difluoromethyl)-3-(3-pyridinyl)-1H-pyrazol-1-yl)phenyl)-3-fluoroisonicotinamide]: for the setting “Homo sapiens, PBMC”, the IC50 was 303 nM.

`Cc1cc(Br)ccc1NC(=O)Nc1ccc(-n2nc(C(F)(F)F)cc2C(F)(F)F)cc1` [Example 77, N-[4-[3,5-bis(trifluoromethyl)-1H-pyrazol-1-yl]phenyl]-N′-(4-bromo-2-methylphenyl)urea]: the inhibition at 10 µM under setting [2] worked out at 93%. The molecule also yielded an IC50 (Homo sapiens, PBMC) of 655 nM.

As for `O=C(CCCC[C@@H]1SC[C@@H]2NC(=O)N[C@@H]21)Nc1ccc(-n2nc(C(F)(F)F)cc2C(F)(F)F)cc1` [Example 23, 3a(S)-(3aα,4β,6aα)-N-[4-[3,5-bis(trifluoromethyl)-1H-pyrazol-1-yl]phenyl]hexahydro-2-oxo-1H-thieno[3,4-d]limidazole-4-pentanamide], the “% Inhibition of proliferation” value under setting [5] is given as 4(1) %.

As to `O=C(CCCNC(=O)OCc1ccccc1)Nc1ccc(-n2nc(C(F)(F)F)cc2C(F)(F)F)cc1` [Example 158], the “% Inhibition of proliferation” value under setting [5] is given as 30(1) %.

Consider `O=C(Nc1ccc(-n2nc(C(F)(F)F)cc2C(F)(F)F)cc1)c1cccc([N+](=O)[O-])c1Br` [Example 205, N-[4-[3,5-bis(trifluoromethyl)-1H-pyrazol-1-yl]phenyl]-2-bromo-3-nitrobenzamide], for which the inhibition at 10 µM under setting [2] was 100%. Half-maximal inhibition (Homo sapiens, PBMC) (IC50) was put at 196 nM.
